Experimental data: patent publication US20170066717A1, “NEW PHENYLAZETIDINECARBOXYLATE OR -CARBOXAMIDE COMPOUNDS” (INVENTIVA, priority 2014, published 2017)

Experiments:
NURR-1/RXRα = biological target: T1, NURR-1/RXRα (Homo sapiens, UniProt P19793); assay: Transactivation test, NURR-1-Gal4/RXRα, luciferase reporter in Cos-7 cells; format: cell-based; conditions: for EC50: Cos-7 cells, NURR-1-Gal4/RXRα, luciferase reporter, read-out: hNurr1_RXRaFL EC50; for Emax: COS-7, induction level relative to reference XCT0135908 at 2×10^−5 M (=100%), read-out: hNurr1_RXRaFL Emax (%)
T1 construct: expressed in transfected cells; host or cells: Cos-7 cells
T1 sequence (P19793 whole entry, the tested form may be a part): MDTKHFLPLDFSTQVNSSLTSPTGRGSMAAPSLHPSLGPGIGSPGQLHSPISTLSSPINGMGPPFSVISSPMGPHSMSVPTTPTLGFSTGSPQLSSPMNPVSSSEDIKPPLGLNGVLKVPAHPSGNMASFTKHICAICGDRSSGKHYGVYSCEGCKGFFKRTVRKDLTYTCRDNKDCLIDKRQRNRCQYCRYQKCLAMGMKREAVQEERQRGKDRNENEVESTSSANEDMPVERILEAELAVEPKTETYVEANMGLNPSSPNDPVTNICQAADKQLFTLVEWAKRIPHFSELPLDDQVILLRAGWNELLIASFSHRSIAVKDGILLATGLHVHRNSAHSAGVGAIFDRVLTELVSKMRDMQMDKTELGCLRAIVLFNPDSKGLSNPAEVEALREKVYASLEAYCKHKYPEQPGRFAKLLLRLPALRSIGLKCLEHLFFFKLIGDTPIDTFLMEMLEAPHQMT
T1 sequence (P43354 whole entry partner, the tested form may be a part): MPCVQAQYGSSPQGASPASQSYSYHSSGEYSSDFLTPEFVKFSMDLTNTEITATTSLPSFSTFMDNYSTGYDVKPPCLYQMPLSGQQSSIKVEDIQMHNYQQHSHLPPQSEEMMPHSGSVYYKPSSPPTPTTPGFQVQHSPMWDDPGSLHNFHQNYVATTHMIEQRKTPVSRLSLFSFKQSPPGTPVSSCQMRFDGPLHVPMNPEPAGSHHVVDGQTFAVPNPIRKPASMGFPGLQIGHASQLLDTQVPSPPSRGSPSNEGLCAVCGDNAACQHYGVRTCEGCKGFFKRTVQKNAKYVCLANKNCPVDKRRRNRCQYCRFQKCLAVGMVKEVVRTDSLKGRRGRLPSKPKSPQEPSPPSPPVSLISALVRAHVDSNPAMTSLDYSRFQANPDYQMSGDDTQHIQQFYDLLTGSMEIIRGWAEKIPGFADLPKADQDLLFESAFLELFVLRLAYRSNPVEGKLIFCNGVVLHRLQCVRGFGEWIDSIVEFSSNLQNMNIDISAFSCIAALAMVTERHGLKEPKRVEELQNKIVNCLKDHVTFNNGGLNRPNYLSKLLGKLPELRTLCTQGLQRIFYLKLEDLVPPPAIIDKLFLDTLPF
T1 sequence (P04386 1-147 partner limits assumed): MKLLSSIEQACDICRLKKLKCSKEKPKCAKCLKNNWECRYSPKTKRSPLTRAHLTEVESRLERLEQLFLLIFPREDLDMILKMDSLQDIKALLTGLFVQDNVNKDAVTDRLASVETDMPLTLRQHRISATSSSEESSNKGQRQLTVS
Description: (§1) The ability of the compounds according to the invention to behave as an activator of the heterodimers formed by the NURR-1 nuclear receptor and the RXR nuclear receptors was measured by means of an in vitro test. A transactivation test was used as primary selection (screening) test. Cos-7 cells were cotransfected with a plasmid expressing a chimera of the human NURR-1-Gal4 receptor, a plasmid expressing the human RXR receptor (RXRα or RXRγ receptor) and a 5Gal4pGL3-TK-Luc reporter plasmid. The transfctions were carried out using a chemical agent (Jet PEI). The transfected cells were distributed into 384-well plates and left to stand for 21 hours. At time 24 hours the culture medium was changed. The test products were added (final concentration of between 10^''4 and 3×10^-10 M) to the culture medium. After incubation overnight, the lucifeiase expression was measured after addition of SteadyGlo according to the instructions of the manufacturer (Promega). […] The induction levels (Emax) were calculated relative to the basal activity of each heterodimer.

NURR-1/RXRγ = biological target: T2, NURR-1/RXRγ (Homo sapiens, UniProt P48443); assay: Transactivation test, NURR-1-Gal4/RXRγ, luciferase reporter in Cos-7 cells; format: cell-based; conditions: for EC50: Cos-7 cells, NURR-1-Gal4/RXRγ, luciferase reporter, read-out: hNurr1_RXRgFL EC50; for Emax: COS-7, induction level relative to reference XCT0135908 at 2×10^−5 M (=100%), read-out: hNurr1_RXRgFL Emax (%)
T2 construct: expressed in transfected cells; host or cells: Cos-7 cells
T2 sequence (P48443 whole entry, the tested form may be a part): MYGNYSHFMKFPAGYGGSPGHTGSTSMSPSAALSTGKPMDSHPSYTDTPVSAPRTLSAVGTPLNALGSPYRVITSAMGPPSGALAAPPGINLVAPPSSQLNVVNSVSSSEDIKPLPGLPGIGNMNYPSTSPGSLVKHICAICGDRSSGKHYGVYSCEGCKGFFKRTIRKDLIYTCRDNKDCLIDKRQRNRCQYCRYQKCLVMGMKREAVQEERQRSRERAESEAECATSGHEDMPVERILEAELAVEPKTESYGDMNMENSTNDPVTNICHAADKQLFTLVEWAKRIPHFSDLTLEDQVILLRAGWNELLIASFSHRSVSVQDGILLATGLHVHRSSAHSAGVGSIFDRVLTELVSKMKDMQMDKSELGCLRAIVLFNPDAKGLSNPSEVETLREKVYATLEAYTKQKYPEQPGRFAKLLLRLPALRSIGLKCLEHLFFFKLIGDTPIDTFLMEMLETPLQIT
T2 sequence (P43354 whole entry partner, the tested form may be a part): as the sequence (P43354 whole entry partner, the tested form may be a part) above
T2 sequence (P04386 1-147 partner limits assumed): as the sequence (P04386 1-147 partner limits assumed) above
Description: as §1

[1] = induction level relative to reference XCT0135908 at 2×10^−5 M (=100%)

Row | Structure (SMILES) | EC50 (NURR-1/RXRα) | hNurr1_RXRaFL Emax (%) (NURR-1/RXRα; [1]) | EC50 (NURR-1/RXRγ) | hNurr1_RXRgFL Emax (%) (NURR-1/RXRγ; [1]) | Emax (NURR-1/RXRα) | Emax (NURR-1/RXRγ)
1 | CC1COc2cc(C(F)(F)F)ccc2N1c1cccc(N2CC(C(=O)O)C2)c1 (single isomer, unassigned; isomer 2) [Example 124-2, 1-[3-[3-methyl-7-(trifluromethyl)-2,3-dihydro-1,4-benzoxazin-4-yl]phenyl]azetidine-3-carboxylic acid, isomer 2] | 10 nM | 107% | 17 nM | 95% |  | 
2 | Cc1cc(-c2cccc(OC(F)(F)F)c2)cc(N2CC(C(=O)O)C2)c1 [Example 1, 1-[3-methyl-5-[3-(trifluoromethoxy)phenyl]phenyl]azetidine-3-carboxylic acid] | 41 nM |  | 69 nM |  | 122% | 108%
3 | Cc1cc(-c2cc(N(C)C)cc(C(F)(F)F)c2)cc(N2CC(C(=O)O)C2)c1 [Example 2, 1-[3-[3-(dimethylamino)-5-(trifluoromethyl)phenyl]-5-methylphenyl]azetidine-3-carboxylate acid] | 19 nM |  | 32 nM |  | 119% | 119%
4 | Cc1cc(-c2cccc(C(C)C)c2)cc(N2CC(C(=O)O)C2)c1 [Example 3, 1-[3-(3-isopropylphenyl)-5-methylphenyl]azetidine-3-carboxylate acid] | 13 nM |  | 16 nM |  | 101% | 97%
5 | Cc1cc(-c2ccc3c(c2)C(C)(C)CCC3(C)C)cc(N2CC(C(=O)O)C2)c1 [Example 9, 1-[3-methyl-5-(1,1,4,4-tetramethyltetralin-6-yl)phenyl]azetidine-3-carboxylic acid] | 7 nM |  | 16 nM |  | 82% | 86%
6 | Cc1cc(-c2cc(C(F)(F)F)nc3ccccc23)cc(N2CC(C(=O)O)C2)c1 [Example 21, 1-[3-methyl-5-[2-(trifluoromethyl)-4-quinolyl]phenyl]azetidine-3-carboxylic acid] | 13 nM |  | 4 nM |  | 102% | 101%
7 | Cc1cc(-c2cccc(C(F)(F)F)c2F)cc(N2CC(C(=O)O)C2)c1 [Example 23, 1-[3-[2-fluoro-3-(trifluoromethyl)phenyl]-5-methylphenyl]azetidine-3-carboxylic acid] | 13 nM |  | 30 nM |  | 111% | 107%
8 | CC(C)COc1ccc(C(F)(F)F)cc1-c1cccc(N2CC(C(=O)O)C2)c1 [Example 94, 1-[3-[2-isobutoxy-5-(trifluoromethyl)phenyl]phenyl]azetidine-3-carboxylic acid] | 18 nM |  |  |  | 48% | 
9 | COc1ccccc1C(C)Oc1ccc(C(F)(F)F)cc1-c1cccc(N2CC(C(=O)O)C2)c1 (centres unmarked) [Example 95, 1-[3-[2-[1-(2-methoxyphenyl)ethoxy]-5-(triflurooemethyl)phenyl]phenyl]azetidine-3-carboxylic acid] | 20 nM |  |  |  | 46% | 
10 | CN1CC2(CCC2)Oc2cc(C(C)(C)C)cc(-c3cccc(N4CC(C(=O)O)C4)c3)c21 [Example 213, tert-butylammonium 1-[3-(7-tert-butyl-4-methyl-spiro[3H-1,4-benzoxazine-2,1′-cyclobutane]-5-yl)phenyl]azetidine-3-carboxylate] | 0.79 nM |  |  |  | 77% | 
11 | CC1(C)Oc2cc(C#N)ccc2N(c2cccc(N3CC(C(=O)O)C3)c2)C1=O [Example 254, tert-butylammonium 1-[3-(7-cyano-2,2-dimethyl-3-oxo-1,4-benzoxazin-4-yl)phenyl]azetidine-3-carboxylate] | 2950 nM |  |  |  | 70% | 
12 | CC1(C)CC(c2cccc(N3CC(C(=O)O)C3)c2)c2ccc(C(F)(F)F)cc2O1 (centres unmarked) [Example 270, tert-butylammonium 1-[3-[2,2-dimethyl-7-(trifluoromethyl)chroman-4-yl]phenyl]azetidine-3-carboxylate] | 5 nM |  |  |  | 99% | 

Continued by falling EC50 (NURR-1/RXRα), values first:

Row | EC50 (NURR-1/RXRα) | hNurr1_RXRaFL Emax (%) (NURR-1/RXRα; [1]) | EC50 (NURR-1/RXRγ) | hNurr1_RXRgFL Emax (%) (NURR-1/RXRγ; [1]) | Emax (NURR-1/RXRα) | Emax (NURR-1/RXRγ) | Structure (SMILES)
13 | 2090 nM |  | > 5000 nM |  | 87% | 69% | Cc1cc(-c2cccc(C(C)(C)O)c2)cc(N2CC(C(=O)O)C2)c1 [Example 20, 1-[3-[3-(1-hydroxy-1-methylethyl)phenyl]-5-methylphenyl]azetidine-3-carboxylic acid]
14 | 1430 nM |  | 1770 nM |  | 97% | 71% | Cc1cc(-c2cccc(C3=NC(C)(C)CO3)c2)cc(N2CC(C(=O)O)C2)c1 [Example 19, 1-[3-[3-(4,4-dimethyl-5H-oxazol-2-yl)phenyl]-5-methylphenyl]azetidine-3-carboxylic acid]
15 | 186 nM |  | 461 nM |  | 111% | 101% | Cc1cc(-c2cccc(N3CCOCC3)c2)cc(N2CC(C(=O)O)C2)c1 [Example 6, 1-[3-methyl-5-(3-morpholinophenyl)phenyl]azetidine-3-carboxylic acid]
16 | 114 nM |  |  |  | 89% |  | CC(C)c1ccc2c(c1)CC(C)(C)CN2c1cccc(N2CC(C(=O)O)C2)c1 [Example 245, tert-butylammonium 1-[3-(6-isopropyl-3,3-dimethyl-2,4-dihydroquinolin-1-yl)phenyl]azetidine-3-carboxylate]
17 | 67 nM |  | 157 nM |  | 95% | 93% | Cc1cc(-c2cc(F)cc(Cl)c2)cc(N2CC(C(=O)O)C2)c1 [Example 18, 1-[3-(3-chloro-5-fluorophenyl)-5-methylphenyl]azetidine-3-carboxylic acid]
18 | 53 nM |  | 114 nM |  | 99% | 106% | O=C(O)C1CN(c2cccc(-c3cccc(C(F)(F)F)c3)c2)C1 [Example 14, 1-[3-[3-(trifluoromethyl)phenyl]phenyl]azetidine-3-carboxylic acid]
19 | 53 nM |  | 119 nM |  | 99% | 84% | Cc1cc(-c2cccc(N3CCCCC3)c2)cc(N2CC(C(=O)O)C2)c1 [Example 17, 1-[3-methyl-5-[3-(1-piperidyl)phenyl]phenyl]azetidine-carboxylic acid]
20 | 47 nM |  | 93 nM |  | 124% | 115% | Cc1cc(-c2cccc(OC(F)F)c2)cc(N2CC(C(=O)O)C2)c1 [Example 5, 1-[3-[3-(difluoromethoxy)phenyl]-5-methylphenyl]azetidine-3-carboxylic acid]
21 | 38 nM |  | 28 nM |  | 96% | 100% | Cc1cc(-c2cccc(N3CCCC3)c2)cc(N2CC(C(=O)O)C2)c1 [Example 4, 1-[3-methyl-5-(3-pyrrolidin-1-ylphenyl)phenyl]azetidine-3-carboxlic acid]
22 | 32 nM |  | 116 nM |  | 105% | 102% | O=C(O)C1CN(c2cccc(-c3cc(F)cc(C(F)(F)F)c3)c2)C1 [Example 13, 1-[3-[3-fluoro-5-(trifluoromethyl)phenyl]phenyl]azetidine-3-carboxylic acid]
23 | 22 nM |  | 43 nM |  | 95% | 85% | Cc1cc(-c2cccc(C(F)(F)F)c2C)cc(N2CC(C(=O)O)C2)c1 [Example 15, 1-[3-methyl-5-[2-methyl-3-(trifluoromethyl)phenyl]phenyl]azetidine-3-carboxylic acid]
24 | 19 nM |  | 50 nM |  | 99% | 109% | Cc1cc(-c2cccc3c2OC(F)(F)O3)cc(N2CC(C(=O)O)C2)c1 [Example 25, 1-[3-(2,2-difluoro-1,3-benzodioxal-4-yl)-5-methylphenyl]azetidine-3-carboxylic acid]
25 | 5 nM |  | 12 nM |  | 107% | 107% | Cc1cc(-c2cc(F)cc(C(F)(F)F)c2)cc(N2CC(C(=O)O)C2)c1 [Example 8, 1-[3-[3-fluoro-5-(trifluoromethyl)phenyl]-5-methluphenyl]azetidine-3-carboxylic acid]
26 | 3 nM |  | 13 nM |  | 114% | 104% | Cc1cc(-c2cc(C(F)(F)F)ccc2Cl)cc(N2CC(C(=O)O)C2)c1 [Example 24, 1-[3-[2-chloro-5-(trifluoromethyl)phenyl]-5-methylphenyl]azetidine-3-carboxylic acid]
27 | 2 nM |  | 4 nM |  | 119% | 103% | Cc1cc(-c2cc(Cl)cc(C(F)(F)F)c2)cc(N2CC(C(=O)O)C2)c1 [Example 16, 1-[3-[3-chloro-5-(trifluoromethyl)phenyl]-5-methylphenyl]azetidine-3-carboxylic acid]
28 | 1 nM |  |  |  | 61% |  | CC1(C)CN(CC(F)(F)F)c2c(cc(C(F)(F)F)cc2-c2cccc(N3CC(C(=O)O)C3)c2)O1 [Example 215, tert-butylammonium 1-[3-[2,2-dimethyl-4 (2,2,2-trifluoromethyl)-7-(trifluoromethyl)-3H-1,4-benzoxazin-5-yl]phenyl]azetidine-3-carboxylate]
